Measured values taken from patent US10894811B2, “Peptide inhibitors of calcium channels” (The University of North Carolina at Chapel Hill, priority 2016, dated 2021).
Entries after “also recorded” stand apart in the source; their conditions may differ.

What was measured:
[1] = tested on: house dust mite-exposed mouse; assay: House dust mite allergy model, HDM-specific IgE by ELISA; type: in vivo; conditions: SPLUNC1−/− mice, HDM challenge; α6 peptide intranasally day 15 and day 16; serum on day 17
Protocol: Nasal instillation of α6 peptides to mice: SPLUNC1^(−/−) mice were exposed to 2 μg house dust mite extract in 40 μl of PBS intranasally on days 0 and day 7. After this time, they were again challenged intranasally with 20 μg HDM in 40 μl of PBS from day 14 to day 16. We Then 320 μM of the short α6 peptide was added intranasally once per day on day 15 and on day 16 and the animals sacrificed on day 17. Bronchoalveolar lavage total and differential cell counts were performed using a Kwik-Diff™ Stain Kit (Thermo Scientific). After sacrificing the animals, blood was obtained by cardiac puncture and plasma was taken by spinning down whole blood. Serum HDM-specific antibody levels were measured using an enzyme-linked immunosorbent assay (ELISA). Briefly, plates were coated overnight with 0.01% HDM in PBS and blocked with 1% BSA in PBS before the addition of serum samples that had been diluted 1:10 in blocking buffer and standards for 1 h. […] Plates were washed an additional six times, streptavidin-HRP (R&D Systems) was added for 30 min and the amount of bound HDM-specific antibody was determined using TMB substrate (Thermo Scientific). […] Using the same SPLUNC1^(−/−) mice/HDM challenge as described in FIG. 15, serum was obtained on day 17 and IgE measured by ELISA.

[2] = tested on: house dust mite-exposed mouse; assay: House dust mite allergy model, bronchoalveolar lavage cell counts; type: in vivo; conditions: SPLUNC1−/− mice, HDM challenge, day 17
Protocol: Nasal instillation of α6 peptides to mice: SPLUNC1^(−/−) mice were exposed to 2 μg house dust mite extract in 40 μl of PBS intranasally on days 0 and day 7. After this time, they were again challenged intranasally with 20 μg HDM in 40 μl of PBS from day 14 to day 16. We Then 320 μM of the short α6 peptide was added intranasally once per day on day 15 and on day 16 and the animals sacrificed on day 17. Bronchoalveolar lavage total and differential cell counts were performed using a Kwik-Diff™ Stain Kit (Thermo Scientific). After sacrificing the animals, blood was obtained by cardiac puncture and plasma was taken by spinning down whole blood. Serum HDM-specific antibody levels were measured using an enzyme-linked immunosorbent assay (ELISA). Briefly, plates were coated overnight with 0.01% HDM in PBS and blocked with 1% BSA in PBS before the addition of serum samples that had been diluted 1:10 in blocking buffer and standards for 1 h. Plates were washed 6× with PBS containing 0.05% Tween-20 before incubation with biotinylated anti-mouse IgE (Pharmingen) at a concentration of 2 μg/ml for 1 h. Plates were washed an additional six times, streptavidin-HRP (R&D Systems) was added for 30 min and the amount of bound HDM-specific antibody was determined using TMB substrate (Thermo Scientific). To test whether α6 peptides were efficacious in vivo, a well-characterized murine allergy model was used, the house dust mite-exposed mouse (Wu T et al., Nature Communications, 2017). Since SPLUNC1^(−/−) mice have asthma-like symptoms including spontaneous inflammation and airway hyperreactivity (Wu T et al., Nature Communications, 2017; Thaikoottathil et al., Am. J. Respir. Cell Mol. Biol. 47:253 (2012)), SPLUNC1^(−/−) mice were exposed to 20 μg HDM intranasally on day 0 and […]. After this time, they were challenged with 20 μg HDM intranasally from day 14 to day 17. […] of the short α6 peptide was administered intranasally once per day on day 15 and on day 16 and sacrificed the animals were sacrificed on day 17. Bronchoalveolar lavage was performed and total and differential cell counts performed (FIG. 15).

[3] = tested on: hASMCs; assay: Calcium imaging using fura-2 (thapsigargin-induced Ca2+ signaling); type: cell-based, human; conditions: for thapsigargin (TG)-induced Ca2+ flux (peak fura-2 ratio change): human ASMCs, co-incubated 1 h; for ability to suppress Ca2+ signaling, SPLUNC1 mutants/peptides: ASMCs pre-incubated with truncated SPLUNC1 peptides (FIG. 4H)
Protocol: Calcium imaging: Calcium imaging using fura-2 was adapted from a previous published protocol with minor modifications (Sheridan et al., J. Biol. Chem. 288:33509 (2013)). Briefly, hASMCs were loaded with 2 μM fura-2 AM (Invitrogen) and serosal media from HBEC cultures or recombinant SPLUNC1 at 37° C. for 1 h. Cultures were washed with a standard Ringer's solution (101 mM NaCl, 12 mM NaHCO3, 1.2 mM MgCl2, 1.2 mM CaCl2, […], 24 mM HEPES, 10 mM glucose, pH 7.4) or with Ca^2+-free Ringer's solution as indicated. Cultures were then placed in the Ringer's solution, and images were collected with a 40×1.4 NA oil objective on a Nikon Ti-S inverted microscope. Fura-2 fluorescence was acquired alternately at 340 and 380 nm (emission >450 nm) using LUDL filter wheels, obtained with an Orca FLASH 4.0 CMOS camera (Hammamatsu), and controlled with HCImageLive software. Cell bodies were identified as individual regions of interest (ROIs). Background subtraction was performed using a region without the cell. Signals were converted to relative changes (F/F0) where F0 was the ratio of the average fluorescent intensity (340/380) of ROIs at 0 time point. A total of 20 cells/coverslip were recorded. ΔF/F0 represents average peak fluorescent intensity changes of three independent experiments.

Molecule: DITLVHDIVNMLIHG (listed as Homo sapiens) [SEQ ID NO:3, amino acids 235-249 of human SPLUNC1]
- plasma (serum) HDM-specific IgE levels [1]: significantly reduced; also recorded: reduce blood IgE levels
- eosinophil influx (bronchoalveolar lavage) ([2]; peptide 320 μM / 320 μM intranasally once per day on day 15 and day 16): decreased
- bronchoalveolar lavage total cell count ([2]; peptide 320 μM / 320 μM intranasally once per day on day 15 and day 16, listed as short α6 peptide): significantly reduced
- bronchoalveolar lavage total cell count ([2]; peptide 320 μM / 320 μM intranasally once per day on day 15 and day 16, listed as α6 peptide): reduce inflammatory cell counts
- neutrophil influx (bronchoalveolar lavage) ([2]; peptide 320 mM / 320 μM intranasally once per day on day 15 and day 16): decreased

Molecule: DITLVHDIVNMLIHGLQFVIKV (listed as Homo sapiens) [SEQ ID NO:2, amino acids 235-256 of human SPLUNC1]
- thapsigargin (TG)-induced Ca2+ flux (peak fura-2 ratio change) [3]: inhibited
- thapsigargin (TG)-induced Ca2+ flux (peak fura-2 ratio change) ([3]; listed as SPLUNC1 derived peptide): inhibits thapsigargin-induced Ca^2+ release

Molecule: S18: N-terminal S18 region of SPLUNC1, its ENaC regulatory domain; synthesized peptide (GGLPVPLDQTLPLNVNPA) [reference compound]
- ability to suppress Ca2+ signaling, SPLUNC1 mutants/peptides [3]: did not inhibit SOCE

B1: mouse SPLUNC1: mouse SPLUNC1 protein (protein)
chain: QLAGLPLPLGQGPPLPLNQGPPLPLNQGQLLPLAQGLPLAVSPALPSNPTDLLAGKFTDALSGGLLSGGLLGILENIPLLDVIKSGGGNSNGLVGGLLGKLTSSVPLLNNILDIKITDPQLLELGLVQSPDGHRLYVTIPLGLTLNVNMPVVGSLLQLAVKLNITAEVLAVKDNQGRIHLVLGDCTHSPGSLKISLLNGVTPVQSFLDNLTGILTKVLPELIQGKVCPLVNGILSGLDVTLVHNIAELLIHGLQFVIKV
- ability to suppress Ca2+ signaling, SPLUNC1 mutants/peptides [3]: Inhibition was not different
